Test [1] concerns Aedes aegypti (susceptible) AeAe larvae. Briefly: WHO standard larval bioassay. The note with it: Example 2, Ae. Aegypti Susceptible, 10% working dilution in ethanol (mixture 5%+5%), 24 hours. Format: in vivo.
Test [2] deals with Anopheles gambiae (susceptible) KWA larvae. Briefly: WHO standard larval bioassay. Format: in vivo. Conditions: Example 2, An. Gambiae Susceptible, 10% working dilution in ethanol (mixture 5%+5%), 24 hours.
Test [3] concerns Anopheles albimanus (susceptible) Mexico larvae. Briefly: WHO standard larval bioassay. It is filed as in vivo. Conditions: Example 2, An. Albimanus Susceptible, 10% working dilution in ethanol (mixture 5%+5%), 24 hours.
Test [4] has as its system range of mosquito species (larvae). Briefly: WHO standard larval bioassay, summary over all strains. Format: in vivo, Anopheles, Aedes, Culex. Conditions: Example 2, LD90 similar in susceptible and resistant strains.
Test [5] has as its system Culex quinquefasciatus (susceptible) Muheza larvae. Briefly: WHO standard larval bioassay. Format: in vivo. The note with it: Example 2, Cx. quinquefasciatus Susceptible, 10% working dilution in ethanol (mixture 5%+5%), 24 hours.
Test [6] deals with Anopheles stephensi (Organophosphate Resistant) ST Mal larvae. The test is described as follows: WHO standard larval bioassay. Format: in vivo. Conditions: Example 2, An. Stephensi OP Resistant, 10% working dilution in ethanol (mixture 5%+5%), 24 hours.
Test [7] has as its system Anopheles gambiae (DDT resistant) ZANDS larvae. The test is described as follows: WHO standard larval bioassay. It is filed as in vivo. Conditions: Example 2, An. Gambiae DDT Resistant, 10% working dilution in ethanol (mixture 5%+5%), 24 hours.
Test [8] has as its system Anopheles stephensi (susceptible) Beech larvae. Briefly: WHO standard larval bioassay. It is filed as in vivo. The note with it: Example 2, An. Stephensi Susceptible, 10% working dilution in ethanol (mixture 5%+5%), 24 hours.
In test [9] the test system is Anopheles gambiae (Pyrethroid Resistant) VKPR larvae. The test is described as follows: WHO standard larval bioassay. It is filed as in vivo. The note with it: Example 2, An. Gambiae Py. Resistant, 10% working dilution in ethanol (mixture 5%+5%), 24 hours.
The test system of test [10] is Anopheles albimanus (Carbamate Resistant) FEST larvae. Briefly: WHO standard larval bioassay. The note with it: Example 2, An. albimanus Carbamate Resistant, 10% working dilution in ethanol (mixture 5%+5%), 24 hours. It is filed as in vivo.
The test system of test [11] is Culex pipiens pipiens (susceptible) Pip larvae. Briefly: WHO standard larval bioassay. Conditions: Example 2, Cx. pipiens Susceptible, 10% working dilution in ethanol (mixture 5%+5%), 24 hours. Format: in vivo.
Test [12] has as its system Aedes albopictus (susceptible) Albo larvae. Briefly: WHO standard larval bioassay. It is filed as in vivo. The note with it: Example 2, Ae. albopictus Susceptible, 10% working dilution in ethanol (mixture 5%+5%), 24 hours.

For `Cc1ccc(C(C)C)cc1` [p-Cymene, p-cymene], the LD90 is 0.198 mL in test [1]; 0.140 mL in [2]; 0.088 mL in test [3]; 0.215 mL in test [5]; 0.134 mL in test [6]; 0.204 mL in [7]. For the same compound, the LD90 in [8] was determined as 0.085 mL; in [9], 0.202 mL; in test [10], 0.191 mL; in test [11], 0.120 mL; in [12], 0.150 mL. The “cross resistance to existing insecticide classes (pyrethroids/OP's/Carbamates/Organochlorines)” value in test [4] is on record as “no evidence of cross resistance”.

As for `Cc1ccc(C(C)C)c(O)c1` [Thymol], the LD90 in test [1] is 0.302 mL; in test [2] it was 0.177 mL; in [3], 0.115 mL; in test [5], 0.330 mL; in test [6], 0.177 mL; in test [7], 0.235 mL. For the same compound, the LD90 was found to be 0.112 mL in [8]; 0.261 mL in test [9]; 0.224 mL in test [10]; 0.135 mL in test [11]; 0.172 mL in test [12]. For the same compound, the “cross resistance to existing insecticide classes (pyrethroids/OP's/Carbamates/Organochlorines)” value in [4] is “no evidence of cross resistance”.

The values above are taken from patent US20090036547A1 (priority 2005, published 2009).
